Experimental findings from patent US4868321A, “Isothiocyanate intermediates” (FMC Corporation, priority 1988, dated 1989) are described below.

Assay type in all cases: in vivo
For test [1], the system named is Field Bindweed. The test can be described thus: Preemergence Herbicidal Activity, Field Bindweed. As to conditions: pre-emergence; for pest or weed control at 1000 g/ha: 1.0 kg/ha. Summed up: (§1)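 Read-out is percent control (% C) at application rates expressed in kilograms per hectare. Compounds were generally delivered in a 50/50 acetone/water solution, either before emergence or onto emerged plants.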

The test system of test [2] is Soybean. The test can be described thus: Preemergence Herbicidal Activity, Soybean. As to conditions: Glycine max, pre-emergence; for plant injury at 1000 g/ha: 1.0 kg/ha. Summed up:
(§2)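 Application rate is expressed per hectare in kilograms. Values are percent control.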

Test [3] relates to Rice. Kind of test: Preemergence Herbicidal Activity, Rice. As to conditions: Oryza sativa, pre-emergence; for plant injury at 1000 g/ha: 1.0 kg/ha. Summed up: as §2
The subject of test [4] is Barnyardgrass. Kind of test: Preemergence Herbicidal Activity, Barnyardgrass. As to conditions: Echinochloa crus-galli, pre-emergence; for pest or weed control at 1000 g/ha: 1.0 kg/ha. Summed up: (§3)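 Kilogram-per-hectare application rates; outcome scored by percent control of treated plants.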
Test [5] has as its system Johnsongrass. Kind of test: Postemergence Herbicidal Activity, Johnsongrass. The conditions noted are these: Sorghum halepense, post-emergence; for pest or weed control at 1000 g/ha: 1.0 kg/ha. A digest of the protocol: as §3
Test [6] deals with Rice. The test can be described thus: Postemergence Herbicidal Activity, Rice. As to conditions: Oryza sativa, post-emergence; for plant injury at 1000 g/ha: 1.0 kg/ha. A digest of the protocol:
as §2

Test [7] relates to Field Corn. Kind of test: Preemergence Herbicidal Activity, Field Corn. As to conditions: Zea mays, pre-emergence; for plant injury at 1000 g/ha: 1.0 kg/ha. Summed up:
as §2

Test [8] concerns Wheat. The test can be described thus: Preemergence Herbicidal Activity, Wheat. As to conditions: Triticum aestivum, pre-emergence; for plant injury at 1000 g/ha: 1.0 kg/ha. A digest of the protocol:
as §2

Test [9] relates to Velvetleaf. Kind of test: Postemergence Herbicidal Activity, Velvetleaf. As to conditions: Abutilon theophrasti, post-emergence; for pest or weed control at 1000 g/ha: 1.0 kg/ha. Summed up:
as §1

In test [10] the test system is Field Corn. The test can be described thus: Postemergence Herbicidal Activity, Field Corn. The conditions noted are these: Zea mays, post-emergence; for plant injury at 1000 g/ha: 1.0 kg/ha. Summed up: as §2
Test [11] has as its system Wheat. The test can be described thus: Postemergence Herbicidal Activity, Wheat. As to conditions: Triticum aestivum, post-emergence; for plant injury at 1000 g/ha: 1.0 kg/ha. Summed up: as §2
The test system of test [12] is Barnyardgrass. Kind of test: Postemergence Herbicidal Activity, Barnyardgrass. As to conditions: Echinochloa crus-galli, post-emergence; for pest or weed control at 1000 g/ha: 1.0 kg/ha. Summed up:
as §3

Test [13] relates to Cotton. Kind of test: Postemergence Herbicidal Activity, Cotton. The conditions noted are these: Gossypium hirsutum, post-emergence; for plant injury at 1000 g/ha: 1.0 kg/ha. A digest of the protocol: as §1
For test [14], the system named is Velvetleaf. Kind of test: Preemergence Herbicidal Activity, Velvetleaf. As to conditions: Abutilon theophrasti, pre-emergence; for pest or weed control at 1000 g/ha: 1.0 kg/ha. Summed up: as §1
For test [15], the system named is Morningglory. The test can be described thus: Preemergence Herbicidal Activity, Morningglory. The conditions noted are these: Ipomoea, pre-emergence; for pest or weed control at 1000 g/ha: 1.0 kg/ha. Summed up: as §1
The subject of test [16] is Green Foxtail. The test can be described thus: Preemergence Herbicidal Activity, Green Foxtail. The conditions noted are these: Setaria viridis, pre-emergence; for pest or weed control at 1000 g/ha: 1.0 kg/ha. Summed up:
as §3

In test [17] the test system is Cotton. Kind of test: Preemergence Herbicidal Activity, Cotton. As to conditions: Gossypium hirsutum, pre-emergence; for plant injury at 1000 g/ha: 1.0 kg/ha. A digest of the protocol:
as §1

Test [18] concerns Johnsongrass. Kind of test: Preemergence Herbicidal Activity, Johnsongrass. The conditions noted are these: Sorghum halepense, pre-emergence; for pest or weed control at 1000 g/ha: 1.0 kg/ha. Summed up:
as §3

For test [19], the system named is Field Bindweed. Kind of test: Postemergence Herbicidal Activity, Field Bindweed. The conditions noted are these: post-emergence; for pest or weed control at 1000 g/ha: 1.0 kg/ha. A digest of the protocol: as §1
Test [20] relates to Green Foxtail. The test can be described thus: Postemergence Herbicidal Activity, Green Foxtail. The conditions noted are these: Setaria viridis, post-emergence; for pest or weed control at 1000 g/ha: 1.0 kg/ha. Summed up:
as §3

In test [21] the test system is Morningglory. Kind of test: Postemergence Herbicidal Activity, Morningglory. As to conditions: Ipomoea, post-emergence; for pest or weed control at 1000 g/ha: 1.0 kg/ha. A digest of the protocol:
as §1

In test [22] the test system is Soybean. Kind of test: Postemergence Herbicidal Activity, Soybean. The conditions noted are these: Glycine max, post-emergence; for plant injury at 1000 g/ha: 1.0 kg/ha. Summed up:
as §2

As usually defined, the pest or weed control is the degree to which the test organism was suppressed or injured, in per cent. A lower pest or weed control goes with a weak effect. What is called plant injury is the degree to which the test organism was suppressed or injured, in per cent. On to `CCS(=O)(=O)Nc1cc(-n2nnn(CCCF)c2=O)c(Cl)cc1F` [Compound 39, 1-[2-Chloro-4-fluoro-5-(N--ethylsulfonylamino)phenyl]-4,5-dihydro-4-(3-fluoropropyl)-5H--tetrazol-5-one], for which the pest or weed control at 1000 g/ha in the test with Field Bindweed [1] turned out to be 70%; in the test with Barnyardgrass [4], 60%; with Johnsongrass [5], 50%; in the test with Velvetleaf [9], 100%; in the test with Barnyardgrass [12], 50%; with Velvetleaf [14], 100%. Further, the pest or weed control at 1000 g/ha in the test with Morningglory [15] came out at 100%; in the test on Green Foxtail [16], 50%; in the test on Johnsongrass [18] it was 10%; in the test on Field Bindweed [19] it was 100%; in the test with Green Foxtail [20] it was 50%; in the test with Morningglory [21], 100%. For the same compound, the plant injury at 1000 g/ha in the test with Soybean [2] was found to be 10%; in the test on Rice [3] it was 10%; with Rice [6], 20%; in the test on Field Corn [7], 70%; in the test on Wheat [8] it was 20%; in the test on Field Corn [10] it was 50%. Further, the plant injury at 1000 g/ha with Wheat [11] came out at 30%; in the test on Cotton [13] it was 100%; in the test with Cotton [17] it was 50%; in the test on Soybean [22], 95%.
In the case of `CCS(=O)(=O)N(C)c1cc(-n2nnn(CCCF)c2=O)c(F)cc1Cl` [Compound 12, 1-[4-chloro-2-fluoro-5-[(N--ethylsulfonyl-N--methyl)amino]phenyl]-1,4-dihydro-4-(3-fluoropropyl)-5H--tetrazol-5-one], the pest or weed control at 500 g/ha with Field Bindweed [1] (0.5 kg/ha) came out at 100%; in the test with Barnyardgrass [4] (0.5 kg/ha), 100%; with Johnsongrass [5] (0.5 kg/ha), 70%; with Velvetleaf [9] (0.5 kg/ha), 100%; with Barnyardgrass [12] (0.5 kg/ha), 70%; with Velvetleaf [14] (0.5 kg/ha) it was 100%. Further, the pest or weed control at 500 g/ha turned out to be 100% with Morningglory [15] (0.5 kg/ha); 100% in the test on Green Foxtail [16] (0.5 kg/ha); 100% in the test with Johnsongrass [18] (0.5 kg/ha); 100% in the test with Field Bindweed [19] (0.5 kg/ha); 70% in the test with Green Foxtail [20] (0.5 kg/ha); 100% in the test on Morningglory [21] (0.5 kg/ha). Further, the plant injury at 500 g/ha in the test on Soybean [2] (0.5 kg/ha) was found to be 80%; in the test with Rice [3] (0.5 kg/ha), 90%; in the test with Rice [6] (0.5 kg/ha), 30%; with Field Corn [7] (0.5 kg/ha), 100%; in the test with Wheat [8] (0.5 kg/ha), 100%; in the test on Field Corn [10] (0.5 kg/ha) it was 70%. For the same compound, the plant injury at 500 g/ha with Wheat [11] (0.5 kg/ha) was 80%; in the test with Cotton [13] (0.5 kg/ha), 100%; in the test on Cotton [17] (0.5 kg/ha) it was 100%; in the test on Soybean [22] (0.5 kg/ha) it was 70%.
As for `CCS(=O)(=O)N(c1cc(-n2nnn(CCCF)c2=O)c(Cl)cc1F)S(=O)(=O)CC` [Compound 37, 1-[2-Chloro-4-fluoro-5-[bis(N--ethylsulfonyl)amino]phenyl]-4,5-dihydro-4-(3-fluoropropyl)-5H--tetrazol-5-one], the pest or weed control at 2000 g/ha in the test with Field Bindweed [1] (2.0 kg/ha) was 20%; with Barnyardgrass [4] (2.0 kg/ha), 80%; in the test on Johnsongrass [5] (2.0 kg/ha) it was 20%; with Velvetleaf [9] (2.0 kg/ha) it was 80%; in the test on Barnyardgrass [12] (2.0 kg/ha), 30%; in the test on Velvetleaf [14] (2.0 kg/ha), 100%. Moreover, the pest or weed control at 2000 g/ha stood at 20% in the test with Morningglory [15] (2.0 kg/ha); 50% in the test on Green Foxtail [16] (2.0 kg/ha); 70% in the test with Johnsongrass [18] (2.0 kg/ha); 40% in the test with Field Bindweed [19] (2.0 kg/ha); 50% in the test with Green Foxtail [20] (2.0 kg/ha); 50% in the test on Morningglory [21] (2.0 kg/ha). Moreover, the plant injury at 2000 g/ha with Soybean [2] (2.0 kg/ha) was 0%; with Rice [3] (2.0 kg/ha), 0%; in the test with Rice [6] (2.0 kg/ha) it was 20%; in the test on Field Corn [7] (2.0 kg/ha) it was 20%; with Wheat [8] (2.0 kg/ha) it was 30%; with Field Corn [10] (2.0 kg/ha) it was 20%. Moreover, the plant injury at 2000 g/ha in the test on Wheat [11] (2.0 kg/ha) was determined as 20%; in the test with Cotton [13] (2.0 kg/ha) it was 70%; in the test on Cotton [17] (2.0 kg/ha), 10%; in the test with Soybean [22] (2.0 kg/ha), 40%.
`CCS(=O)(=O)N(c1cc(-n2nnn(CCCF)c2=O)c(F)cc1Br)S(=O)(=O)CC` [Compound 22, 1-[4-bromo-2-fluoro-5-[bis(N--ehtylsulfonyl)amino]phenyl]-1,4-dihydro-4-(3-fluoropropyl)-5H--tetrazol-5-one]: the pest or weed control at 1000 g/ha in the test on Field Bindweed [1], in the test on Barnyardgrass [4], in the test with Johnsongrass [5], in the test with Velvetleaf [9], in the test with Barnyardgrass [12] and in the test with Velvetleaf [14] was 100% each time. For the same compound, the pest or weed control at 1000 g/ha with Morningglory [15] stood at 100%; in the test with Green Foxtail [16], 100%; with Johnsongrass [18], 100%; in the test on Field Bindweed [19] it was 95%; with Green Foxtail [20] it was 100%; in the test on Morningglory [21], 95%. Further, the plant injury at 1000 g/ha came to 60% with Soybean [2]; 80% with Rice [3]; 80% with Rice [6]; 95% with Field Corn [7]; 90% with Wheat [8]; 100% in the test on Field Corn [10]. Besides, the plant injury at 1000 g/ha in the test with Wheat [11] came out at 90%; in the test on Cotton [13] it was 100%; in the test with Cotton [17], 100%; in the test with Soybean [22] it was 95%.
